Test results reported in US20060069132A1, “Azolecarboxamide herbicides” (priority 2004, published 2006).

Tests used:
[1] = test system: ducksalad; assay: Test B flooded paddy test; format: in vivo, Heteranthera limosa; details: 1000 g ai/ha, visual rating, scale 0 to 100 (0 no effect, 100 complete control), 13 to 15 days
Method in brief: (§1)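 Scale 0–100: zero equals no visible effect, 100 complete control, judged by eye relative to controls. Timing: 13 to 15 days in greenhouse post-treatment. Growth stage at spraying: two leaves (paddy) or one to four leaves, 2–18 cm (postemergence).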

[2] = test system: wheat; assay: Test B postemergence herbicide test; format: in vivo, Triticum aestivum; parameters: key to Wheat plant response rating: 0 = no effect, 100 = complete control; details: scale 0 (no effect) to 100 (complete control); for Wheat plant response rating: postemergence, visual rating
Method in brief: (§2)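 Each value is a visual 0–100 response rating taken against controls 13 to 15 days after treatment in the greenhouse. Plants received formulated chemical postemergence at the 1- to 4-leaf stage or, in flooded paddy, at the 2-leaf stage.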

[3] = test system: giant foxtail; assay: Test A pre-/postemergence herbicide test; format: in vivo, Setaria faberi
Method in brief: (§3)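 Seeds sown in sandy loam received a preemergence directed soil spray of compound in non-phytotoxic solvent with surfactant; postemergence plants (2–10 cm, one- to two-leaf stage) were sprayed to runoff at the same time. After ~10 days in greenhouse, injury was rated visually versus untreated controls (0 = no effect, 100 = complete control).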

[4] = test system: giant foxtail; assay: Test B pre-/postemergence herbicide test; format: in vivo, Setaria faberi; details: for Foxtail, Giant plant response rating: postemergence, visual rating
Method in brief: (§4)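 Pre: seeds sown, then sprayed. Post: 1–4-leaf plants (2–18 cm) sprayed at the same time. Paddy: flooded, treated at 2-leaf stage. Formulation: non-phytotoxic solvent with surfactant. Greenhouse 13–15 days; visual 0–100 score relative to controls.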

[5] = test system: blackgrass; assay: Test B postemergence herbicide test; format: in vivo, Alopecurus myosuroides; details: scale 0 (no effect) to 100 (complete control); for Blackgrass plant response rating: postemergence, visual rating
Method in brief: as §1

[6] = test system: lambsquarters; assay: Test B pre-/postemergence herbicide test; format: in vivo, Chenopodium album; details: for Lambsquarters plant response rating: postemergence, visual rating
Method in brief: as §4

[7] = test system: morningglory; assay: Test A pre-/postemergence herbicide test; format: in vivo, Ipomoea spp.
Method in brief: as §3

[8] = test system: pigweed; assay: Test B pre-/postemergence herbicide test; format: in vivo, Amaranthus retroflexus; details: for Pigweed plant response rating: postemergence, visual rating
Method in brief: as §4

[9] = test system: cocklebur; assay: Test B pre-/postemergence herbicide test; format: in vivo, Xanthium strumarium; details: for Cocklebur plant response rating: postemergence, visual rating
Method in brief: (§5)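 Formulation: non-phytotoxic solvent mix with surfactant. Timing: preemergence on seed and postemergence on 2–18 cm plants, applied concurrently. Readout after 13–15 d greenhouse: visual 0–100 control rating against controls.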

[10] = test system: barnyardgrass; assay: Test A pre-/postemergence herbicide test; format: in vivo, Echinochloa crus-galli
Method in brief: as §3

[11] = test system: morningglory; assay: Test B pre-/postemergence herbicide test; format: in vivo, Ipomoea coccinea; details: for Morningglory plant response rating: postemergence, visual rating
Method in brief: as §5

[12] = test system: barnyardgrass; assay: Test B flooded paddy test; format: in vivo, Echinochloa crus-galli; details: 1000 g ai/ha, visual rating, scale 0 to 100 (0 no effect, 100 complete control), 13 to 15 days
Method in brief: as §1

[13] = test system: corn; assay: Test B pre-/postemergence herbicide test; format: in vivo, Zea mays; details: for Corn plant response rating: postemergence, visual rating
Method in brief: as §4

[14] = test system: redroot pigweed; assay: Test A pre-/postemergence herbicide test; format: in vivo, Amaranthus retroflexus
Method in brief: as §3

[15] = test system: barnyardgrass; assay: Test B pre-/postemergence herbicide test; format: in vivo, Echinochloa crus-galli; details: for Barnyardgrass plant response rating: postemergence, visual rating
Method in brief: as §5

[16] = test system: rice; assay: Test B flooded paddy test; format: in vivo, Oryza sativa; details: 1000 g ai/ha, visual rating, scale 0 to 100 (0 no effect, 100 complete control), 13 to 15 days
Method in brief: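 Plants grow to 1- to 4-leaf stage (2–18 cm) for postemergence spraying, or to 2-leaf stage for the paddy test. Formulated compound is applied. Greenhouse holding lasts 13–15 days. Response is scored visually relative to controls, 0 no effect to 100 complete control; a dash means no result.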

[17] = test system: small flower umbrella sedge; assay: Test B flooded paddy test; format: in vivo, Cyperus difformis; details: 1000 g ai/ha, visual rating, scale 0 to 100 (0 no effect, 100 complete control), 13 to 15 days
Method in brief: as §1

[18] = test system: velvetleaf; assay: Test B pre-/postemergence herbicide test; format: in vivo, Abutilon theophrasti; details: for Velvetleaf plant response rating: postemergence, visual rating
Method in brief: as §4

[19] = test system: large crabgrass; assay: Test B pre-/postemergence herbicide test; format: in vivo, Digitaria sanguinalis; details: for Crabgrass, Large plant response rating: postemergence, visual rating
Method in brief: as §4

[20] = test system: velvetleaf; assay: Test A pre-/postemergence herbicide test; format: in vivo, Abutilon theophrasti
Method in brief: as §3

[21] = test system: Surinam grass; assay: Test B pre-/postemergence herbicide test; format: in vivo, Urochloa decumbens; details: for Surinam Grass plant response rating: postemergence, visual rating
Method in brief: as §4

[22] = test system: wild oat; assay: Test B postemergence herbicide test; format: in vivo, Avena fatua; details: scale 0 (no effect) to 100 (complete control); for Oat, Wild plant response rating: postemergence, visual rating
Method in brief: as §2

[23] = test system: large crabgrass; assay: Test A pre-/postemergence herbicide test; format: in vivo, Digitaria sanguinalis
Method in brief: as §3

[24] = Postemergence, 500 g ai/ha, 0 to 100 scale, 0 no effect, 100 complete control
[25] = Postemergence, 2000 g ai/ha, 0 to 100 scale, 0 no effect, 100 complete control
[26] = Preemergence, 2000 g ai/ha, visual rating, 0 to 100 scale (0 no effect, 100 complete control)
[27] = preemergence, 500 g ai/ha, visual injury, 0 to 100 scale (0 no effect, 100 complete control)
[28] = 125 g ai/ha, 0 = no effect, 100 = complete control, preemergence
[29] = 500 g ai/ha, visual rating 0-100, 0 no effect, 100 complete control, preemergence
[30] = 125 g ai/ha, scale 0 (no effect) to 100 (complete control)
[31] = 500 g ai/ha, scale 0 (no effect) to 100 (complete control)
[32] = Postemergence, 500 g ai/ha, visual rating after 13 to 15 days
[33] = Preemergence, 500 g ai/ha, visual rating, 0 to 100 scale (0 no effect, 100 complete control)
[34] = Postemergence, 500 g ai/ha, visual rating after 13 to 15 days, scale 0 (no effect) to 100 (complete control)
[35] = preemergence, 125 g ai/ha, 0 to 100 scale, 0 is no effect, 100 is complete control

CC(=NO)c1cccc(NC(=O)c2cn(C(C)C)nc2C)c1 [Compound 180]
Ducksalad plant response rating [1]: 20
Wheat plant response rating ([2]; 125 g ai/ha): 0
Wheat plant response rating ([2]; 500 g ai/ha): 0
Foxtail, Giant plant response rating [3, 24]: 15
Plant response rating, Foxtail, Giant [3, 25]: 20
Foxtail, Giant plant response rating [3, 26]: 10
Foxtail, Giant plant response rating [3, 27]: 0
Foxtail, Giant plant response rating (0 to 100 scale) [4, 28]: 0
Plant response rating, Foxtail, Giant [4, 29]: 0
Foxtail, Giant plant response rating [4, 30]: 0
Foxtail, Giant plant response rating [4, 31]: 0
Blackgrass plant response rating ([5]; 125 g ai/ha): 0
Blackgrass plant response rating ([5]; 500 g ai/ha): 0
Lambsquarters plant response rating (0 to 100 scale) [6, 28]: 0
Plant response rating, Lambsquarters [6, 29]: 0
Lambsquarters plant response rating [6, 30]: 0
Lambsquarters plant response rating [6, 31]: 0
Morningglory plant response rating [7, 24]: 10
Plant response rating, Morningglory [7, 25]: 15
Morningglory plant response rating [7, 26]: 10
Morningglory plant response rating [7, 27]: 0
Pigweed plant response rating (0 to 100 scale) [8, 28]: 0
Plant response rating, Pigweed [8, 29]: 0
Pigweed plant response rating [8, 30]: 0
Pigweed plant response rating [8, 31]: 0
Cocklebur plant response rating (0 to 100 scale) [9, 28]: 0
Plant response rating, Cocklebur [9, 29]: 0
Cocklebur plant response rating [9, 30]: 0
Cocklebur plant response rating [9, 31]: 0
Barnyardgrass plant response rating [10, 24]: 20
Plant response rating, Barnyardgrass [10, 25]: 30
Barnyardgrass plant response rating [10, 26]: 0
Barnyardgrass plant response rating [10, 27]: 0
Morningglory plant response rating (0 to 100 scale) [11, 28]: 0
Plant response rating, Morningglory [11, 29]: 0
Morningglory plant response rating [11, 30]: 0
Morningglory plant response rating [11, 31]: 0
Barnyardgrass plant response rating [12]: 20
Corn plant response rating (0 to 100 scale) [13, 28]: 0
Plant response rating, Corn [13, 29]: 0
Corn plant response rating [13, 30]: 0
Corn plant response rating [13, 31]: 0
Pigweed plant response rating [14, 24]: 30
Plant response rating, Pigweed [14, 25]: 95
Pigweed plant response rating [14, 26]: 90
Pigweed plant response rating [14, 27]: 0
Barnyardgrass plant response rating (0 to 100 scale) [15, 28]: 0
Plant response rating, Barnyardgrass [15, 29]: 0
Barnyardgrass plant response rating [15, 30]: 0
Barnyardgrass plant response rating [15, 31]: 0
Rice plant response rating [16]: 0
Sedge, Umbrella plant response rating [17]: 0
Velvetleaf plant response rating (0 to 100 scale) [18, 28]: 0
Plant response rating, Velvetleaf [18, 29]: 0
Velvetleaf plant response rating [18, 30]: 0
Velvetleaf plant response rating [18, 31]: 0
Crabgrass, Large plant response rating (0 to 100 scale) [19, 28]: 0
Plant response rating, Crabgrass, Large [19, 29]: 0
Crabgrass, Large plant response rating [19, 30]: 0
Crabgrass, Large plant response rating [19, 31]: 0
Velvetleaf plant response rating [20, 24]: 10
Plant response rating, Velvetleaf [20, 25]: 15
Velvetleaf plant response rating [20, 26]: 15
Velvetleaf plant response rating [20, 27]: 0
Surinam Grass plant response rating (0 to 100 scale) [21, 28]: 0
Plant response rating, Surinam Grass [21, 29]: 0
Surinam Grass plant response rating [21, 30]: 0
Surinam Grass plant response rating [21, 31]: 0
Oat, Wild plant response rating ([22]; 125 g ai/ha): 0
Oat, Wild plant response rating ([22]; 500 g ai/ha): 0
Crabgrass, Large plant response rating [23, 24]: 20
Plant response rating, Crabgrass, Large [23, 25]: 35
Crabgrass, Large plant response rating [23, 26]: 50
Crabgrass, Large plant response rating [23, 27]: 10

CC(=NO)c1cccc(NC(=O)c2cc(C(C)(C)C)nn2C)c1 [Compound 107]
Ducksalad plant response rating [1]: 60
Plant response rating, Wheat [2, 32]: 0
Wheat plant response rating ([2]; 125 g ai/ha): 0
Foxtail, Giant plant response rating [3, 24]: 20
Plant response rating, Foxtail, Giant [3, 25]: 35
Foxtail, Giant plant response rating [3, 33]: 10
Foxtail, Giant plant response rating [3, 26]: 80
Plant response rating, Foxtail, Giant [4, 29]: 0
Plant response rating, Foxtail, Giant [4, 34]: 0
Foxtail, Giant plant response rating [4, 30]: 0
Plant response rating, Foxtail, Giant [4, 35]: 0
Plant response rating, Blackgrass [5, 32]: 0
Blackgrass plant response rating ([5]; 125 g ai/ha): 0
Plant response rating, Lambsquarters [6, 29]: 30
Plant response rating, Lambsquarters [6, 34]: 20
Lambsquarters plant response rating [6, 30]: 10
Plant response rating, Lambsquarters [6, 35]: 0
Morningglory plant response rating [7, 24]: 30
Plant response rating, Morningglory [7, 25]: 40
Morningglory plant response rating [7, 33]: 95
Morningglory plant response rating [7, 26]: 100
Plant response rating, Pigweed [8, 29]: 0
Plant response rating, Pigweed [8, 34]: 10
Pigweed plant response rating [8, 30]: 0
Plant response rating, Pigweed [8, 35]: 0
Plant response rating, Cocklebur [9, 29]: 0
Plant response rating, Cocklebur [9, 34]: 0
Cocklebur plant response rating [9, 30]: 0
Plant response rating, Cocklebur [9, 35]: 0
Barnyardgrass plant response rating [10, 24]: 20
Plant response rating, Barnyardgrass [10, 25]: 55
Barnyardgrass plant response rating [10, 33]: 0
Barnyardgrass plant response rating [10, 26]: 35
Plant response rating, Morningglory [11, 29]: 10
Plant response rating, Morningglory [11, 34]: 0
Morningglory plant response rating [11, 30]: 0
Plant response rating, Morningglory [11, 35]: 0
Barnyardgrass plant response rating [12]: 0
Plant response rating, Corn [13, 29]: 0
Plant response rating, Corn [13, 34]: 0
Corn plant response rating [13, 30]: 0
Plant response rating, Corn [13, 35]: 0
Pigweed plant response rating [14, 24]: 95
Plant response rating, Pigweed [14, 25]: 100
Pigweed plant response rating [14, 33]: 35
Pigweed plant response rating [14, 26]: 95
Plant response rating, Barnyardgrass [15, 29]: 0
Plant response rating, Barnyardgrass [15, 34]: 0
Barnyardgrass plant response rating [15, 30]: 0
Plant response rating, Barnyardgrass [15, 35]: 0
Rice plant response rating [16]: 0
Sedge, Umbrella plant response rating [17]: 60
Plant response rating, Velvetleaf [18, 29]: 0
Plant response rating, Velvetleaf [18, 34]: 0
Velvetleaf plant response rating [18, 30]: 0
Plant response rating, Velvetleaf [18, 35]: 0
Plant response rating, Crabgrass, Large [19, 29]: 10
Plant response rating, Crabgrass, Large [19, 34]: 0
Crabgrass, Large plant response rating [19, 30]: 0
Plant response rating, Crabgrass, Large [19, 35]: 0
Velvetleaf plant response rating [20, 24]: 0
Plant response rating, Velvetleaf [20, 25]: 0
Velvetleaf plant response rating [20, 33]: 0
Velvetleaf plant response rating [20, 26]: 0
Plant response rating, Surinam Grass [21, 29]: 10
Plant response rating, Surinam Grass [21, 34]: 10
Surinam Grass plant response rating [21, 30]: 10
Plant response rating, Surinam Grass [21, 35]: 0
Plant response rating, Oat, Wild [22, 32]: 0
Oat, Wild plant response rating ([22]; 125 g ai/ha): 0
Crabgrass, Large plant response rating [23, 24]: 25
Plant response rating, Crabgrass, Large [23, 25]: 40
Crabgrass, Large plant response rating [23, 33]: 65
Crabgrass, Large plant response rating [23, 26]: 90
